Assays:
[1] = molecular target: His-His-(EK)-hsBCLXL(2-197)[N197C] (Homo sapiens (Human), UniProt Q07817, N197C); assay: Fluorescence quenching assay; type: binding; details: 1 nM Cy5-labelled protein, 400 nM PUMA peptide, 2 hours at 23° C.; KI determined from IC50
From the text: Fluorescence quenching assay measures the change in fluorescence intensity of C-terminally Cy5-labelled BCL-xL protein, His-His-(EK)-hsBCLXL(2-197)[N197C] (UniProtKB®
which is linked in C-terminal region to the amino acid X which corresponds to a cysteine labelled on the sulfur with Sulfo-Cyanine5 from Lumiprobe GmbH catalogue number 13380, upon binding of a C-terminally labelled peptide derived from PUMA (UniProtKB® primary accession number Q9BXH1) having an aminoacid sequence (SEQ ID:04): [[…]] which is linked in C-terminal region to the amino acid X′ where X′ is cysteine labelled on the sulfur with TQ5WS from AAT Bioquest catalogue number 2079.
The addition of a compound which binds competitively to the same site as the peptide will result in an increase in the fluorescence intensity of the protein due to displacement of the fluorescence quencher.
An 11-point serial dilution of each compound was prepared in DMSO, the final buffer conditions were 10 mM 4-(2-hydroxyethyl)-1-piperazineethanesulfonic acid [HEPES], 150 mM NaCl, 0.05% Tween 20, pH 7.4 and 5% DMSO. The final protein concentration in the assay was 1 nM with the peptide present at 400 nM. The experiments were incubated for 2 hours at 23° C. before fluorescence intensity was measured on a Biotek SynergyNeo plate reader (Excitation 620 nm, emission 680 nm). […] The K1 values were determined from the IC50 values according to Cer et al, Nucleic Acids Res, 2009, Jul. 1; 37 (WebServer issue): W441-W445.

MOLT-4 cells = assay: MOLT-4 cell viability using MTT assay; type: cell-based; details: Homo sapiens, MOLT-4, 48 h, 48 h exposure
Method: MTT colorimetric assay is based on the mitochondrial reduction of tetrazolium salt by living cells.
Cells were cultured at 37° C. in a humidified atmosphere containing 5% CO2. […] At the end of incubation time, 15 μL of MTT solution (5 mg/ml) were added per well and the cells were incubated for another 4 h. […] IC50s were calculated using standard four-parametric curve fitting.

Chain of His-His-(EK)-hsBCLXL(2-197)[N197C] (Q07817 2-197 N197C): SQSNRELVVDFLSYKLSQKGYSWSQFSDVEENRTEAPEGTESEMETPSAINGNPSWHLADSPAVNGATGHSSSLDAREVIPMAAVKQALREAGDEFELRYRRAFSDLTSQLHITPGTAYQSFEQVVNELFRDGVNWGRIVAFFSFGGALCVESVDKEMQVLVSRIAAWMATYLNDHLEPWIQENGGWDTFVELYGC

Row | Compound | Ki [1] | IC50 (MOLT-4 cells)
1 | CCNC(C)(C)C#Cc1ccc(OCCCc2sc(N3CCCc4c3nnc(Nc3nc5ccccc5s3)c4C)nc2C(=O)O)c(F)c1 [Example 102, 2-{3-[(1,3-benzothiazol-2-yl)amino]-4-methyl-6,7-dihydropyrido[2,3-c]pyridazin-8(5H)-yl}-5-(3-{4-[3-(ethylamino)-3-methylbut-1-yn-1-yl]-2-fluorophenoxy}propyl)-1,3-thiazole-4-carboxylic acid] | 0.0045 nM | 0.268 nM
2 | Cc1c(Nc2nc3ccccc3s2)nnc2c1CCCN2c1nc(C(=O)O)c(CCCOc2ccc(C#CCN(CC[C@H](O)CO)CC[C@H](O)CO)cc2F)s1 [Example 125, 2-{3-[(1,3-benzothiazol-2-yl)amino]-4-methyl-6,7-dihydro-5H-pyrido[2,3-c]pyridazin-8-yl}-5-{3-[4-(3-{bis[(3S)-3,4-dihydroxybutyl]amino}prop-1-yn-1-yl)-2-fluorophenoxy]propyl}-1,3-thiazole-4-carboxylic acid] | 0.0067 nM | 9.53 nM
3 | COC(=O)c1nc(N2CCCc3c2nnc(Nc2nc4ccccc4s2)c3C)sc1CCCOc1ccc(C#CCN)cc1F [Example 126, methyl 5-[3-[4-(3-aminoprop-1-ynyl)-2-fluoro-phenoxy]propyl]-2-[3-(1,3-benzothiazol-2-ylamino)-4-methyl-6,7-dihydro-5H-pyrido[2,3-c]pyridazin-8-yl]thiazole-4-carboxylate] | 0.067 nM | 53.3 nM
4 | Cc1c(Nc2nc3ccccc3s2)nnc2c1CCCN2c1nc(C(=O)O)c(CCCOc2ccc(C#CCNCC[C@H](O)CO)cc2F)s1 [Example 129, 2-[3-(1,3-benzothiazol-2-ylamino)-4-methyl-6,7-dihydro-5H-pyrido[2,3-c]pyridazin-8-yl]-5-[3-[4-[3-[[(3S)-3,4-dihydroxybutyl]amino]prop-1-ynyl]-2-fluoro-phenoxy]propyl]thiazole-4-carboxylic acid] | 0.0047 nM | 3.11 nM
5 | Cc1c(Nc2nc3ccccc3s2)nnc2c1CCCN2c1nc(C(=O)O)c(CCCOc2ccc(C#CCNCC[C@@H](O)CO)cc2F)s1 [Example 131, 2-[3-(1,3-benzothiazol-2-ylamino)-4-methyl-6,7-dihydro-5H-pyrido[2,3-c]pyridazin-8-yl]-5-[3-[4-[3-[[(3R)-3,4-dihydroxybutyl]amino]prop-1-ynyl]-2-fluoro-phenoxy]propyl]thiazole-4-carboxylic acid] | 0.0045 nM | 0.275 nM

These reach a lower Ki [1]. Values come first.

Row | Ki [1] | IC50 (MOLT-4 cells) | Compound
6 | 0.0021 nM | 0.137 nM | Cc1c(Nc2nc3ccccc3s2)nnc2c1CCCN2c1ccc(-c2cnn(CC34CC5(C)CC(C)(C3)CC(OCCN3CCCC3)(C5)C4)c2C)c(C(=O)O)n1 [Example 127, 6-[3-(1,3-benzothiazol-2-ylamino)-4-methyl-6,7-dihydro-5H-pyrido[2,3-c]pyridazin-8-yl]-3-[1-[[3,5-dimethyl-7-(2-pyrrolidin-1-ylethoxy)-1-adamantyl]methyl]-5-methyl-pyrazol-4-yl]pyridine-2-carboxylic acid]
7 | 0.0018 nM | 0.284 nM | Cc1c(Nc2nc3ccccc3s2)nnc2c1CCCN2c1ccc(-c2cnn(CC34CC5(C)CC(C)(C3)CC(OCCN3CCN(C)CC3)(C5)C4)c2C)c(C(=O)O)n1 [Example 128, 6-[3-(1,3-benzothiazol-2-ylamino)-4-methyl-6,7-dihydro-5H-pyrido[2,3-c]pyridazin-8-yl]-3-[1-[[3,5-dimethyl-7-[2-(4-methylpiperazin-1-yl)ethoxy]-1-adamantyl]methyl]-5-methyl-pyrazol-4-yl]pyridine-2-carboxylic acid]
8 | 0.0023 nM | 1.94 nM | Cc1c(Nc2nc3ccccc3s2)nnc2c1CCCN2c1ccc(-c2cnn(CC34CC5(C)CC(C)(C3)CC(OCCN(C)CC[C@@H](O)CO)(C5)C4)c2C)c(C(=O)O)n1 [Example 130, 6-[3-(1,3-benzothiazol-2-ylamino)-4-methyl-6,7-dihydro-5H-pyrido[2,3-c]pyridazin-8-yl]-3-[1-[[3-[2-[[(3R)-3,4-dihydroxybutyl]-methyl-amino]ethoxy]-5,7-dimethyl-1-adamantyl]methyl]-5-methyl-pyrazol-4-yl]pyridine-2-carboxylic acid]
